Measurements: ChEMBL document CHEMBL1201862, “PubChem BioAssay data set” (2004)
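Each compound was tested at five concentrations against cells in 96-well plates for 48 hours. At the GI50, growth is halved.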 Active and inactive are the calls of the source. Rule as the data show it: active = GI50 up to about 1.1 µM and inactive = higher.

What was measured:
Test in all cases: NCI-60 cell line screen, 48 h
NCI-H460 = test system: NCI-H460
MDA-MB-435 = test system: MDA-MB-435
M14 = test system: M14
RPMI-8226 = test system: RPMI-8226
SN12C = test system: SN12C
U-251 = test system: U-251
SNB-19 = test system: SNB-19
SR = test system: SR
SK-MEL-28 = test system: SK-MEL-28
OVCAR-8 = test system: OVCAR-8
HOP-62 = test system: HOP-62
SW-620 = test system: SW-620
KM12 = test system: KM12
OVCAR-5 = test system: OVCAR-5
A498 = test system: A498
HT-29 = test system: HT-29
MDA-MB-231 = test system: MDA-MB-231
CAKI-1 = test system: CAKI-1
COLO 205 = test system: COLO 205
NCI/ADR-RES = test system: NCI/ADR-RES
786-0 = test system: 786-0
ACHN = test system: ACHN
UACC-257 = test system: UACC-257
DU-145 = test system: DU-145
OVCAR-4 = test system: OVCAR-4
SNB-75 = test system: SNB-75
UO-31 = test system: UO-31
HOP-92 = test system: HOP-92
BT-549 = test system: BT-549
LOX IMVI = test system: LOX IMVI
SF-539 = test system: SF-539
K562 = test system: K562
SF-295 = test system: SF-295
MCF7 = test system: MCF7
HCT-15 = test system: HCT-15
Hs-578T = test system: Hs-578T
T47D = test system: T47D
CCRF-CEM = test system: CCRF-CEM
HL-60 = test system: HL-60
SK-MEL-2 = test system: SK-MEL-2
HCT-116 = test system: HCT-116
PC-3 = test system: PC-3
IGROV-1 = test system: IGROV-1
NCI-H23 = test system: NCI-H23
MDA-N = test system: MDA-N
RXF 393 = test system: RXF 393
SF-268 = test system: SF-268
TK-10 = test system: TK-10
MOLT-4 = test system: MOLT-4
SK-MEL-5 = test system: SK-MEL-5
Malme-3M = test system: Malme-3M
A549 = test system: A549
SK-OV-3 = test system: SK-OV-3
EKVX = test system: EKVX
OVCAR-3 = test system: OVCAR-3
UACC-62 = test system: UACC-62
HCC 2998 = test system: HCC 2998
NCI-H522 = test system: NCI-H522
NCI-H226 = test system: NCI-H226

In the case of `Clc1cc(OC23CC4CC(CC(C4)C2)C3)nc(Cl)n1`, the GI50 (NCI-H460) is reported as 39.6 µM (inactive), the GI50 (MDA-MB-435) is reported as 39.2 µM (inactive) and the GI50 (M14) is reported as 29.9 µM (inactive). For the same compound, the GI50 (RPMI-8226) was 37.9 µM (inactive), the GI50 (SN12C) was > 100 µM (inactive) and the GI50 (U-251) was 55.8 µM (inactive). The GI50 (SNB-19) was > 100 µM (inactive), the GI50 (SR) was 19.8 µM (inactive) and the GI50 (SK-MEL-28) was 43.2 µM (inactive). For the same compound, the GI50 (OVCAR-8) was > 100 µM (inactive), the GI50 (HOP-62) was > 100 µM (inactive) and the GI50 (SW-620) was 41.2 µM (inactive). The GI50 (KM12) was > 100 µM (inactive), the GI50 (OVCAR-5) was > 100 µM (inactive) and the GI50 (A498) was > 100 µM (inactive). The GI50 (HT-29) was 28.9 µM (inactive), the GI50 (MDA-MB-231) was 33.7 µM (inactive) and the GI50 (CAKI-1) was 1.94 µM (inactive). For the same compound, the GI50 (COLO 205) was 56.6 µM (inactive), the GI50 (NCI/ADR-RES) was > 100 µM (inactive) and the GI50 (786-0) was > 100 µM (inactive). For the same compound, the GI50 (ACHN) was > 100 µM (inactive), the GI50 (UACC-257) was 39 µM (inactive) and the GI50 (DU-145) was 55.7 µM (inactive). The GI50 (OVCAR-4) was 40.9 µM (inactive), the GI50 (SNB-75) was 64.6 µM (inactive) and the GI50 (UO-31) was 25.4 µM (inactive). For the same compound, the GI50 (HOP-92) was 1.7 µM (inactive), the GI50 (BT-549) was > 100 µM (inactive) and the GI50 (LOX IMVI) was 17 µM (inactive). The GI50 (SF-539) was > 100 µM (inactive), the GI50 (K562) was 21.9 µM (inactive) and the GI50 (SF-295) was > 100 µM (inactive). The GI50 (MCF7) was 55.7 µM (inactive), the GI50 (HCT-15) was 29.6 µM and the GI50 (Hs-578T) was 22.8 µM (inactive). The GI50 (T47D) was > 100 µM (inactive), the GI50 (CCRF-CEM) was 23.6 µM (inactive) and the GI50 (HL-60) was 10 µM (inactive). The GI50 (SK-MEL-2) was 29.6 µM (inactive), the GI50 (HCT-116) was 46.3 µM (inactive) and the GI50 (PC-3) was > 100 µM (inactive). The GI50 (IGROV-1) was 27.2 µM (inactive), the GI50 (NCI-H23) was 58.7 µM (inactive) and the GI50 (MDA-N) was 50.6 µM (inactive). The GI50 (RXF 393) was 27.8 µM (inactive), the GI50 (SF-268) was 69.8 µM (inactive) and the GI50 (TK-10) was > 100 µM (inactive). For the same compound, the GI50 (MOLT-4) was 34 µM (inactive), the GI50 (SK-MEL-5) was 38.8 µM (inactive) and the GI50 (Malme-3M) was > 100 µM (inactive). For the same compound, the GI50 (A549) was > 100 µM (inactive), the GI50 (SK-OV-3) was > 100 µM (inactive) and the GI50 (EKVX) was 37.5 µM (inactive). The GI50 (OVCAR-3) was 39.2 µM (inactive), the GI50 (UACC-62) was 52.4 µM (inactive) and the GI50 (HCC 2998) was 12.9 µM (inactive). The GI50 (NCI-H522) was 90.2 µM (inactive).

For `CC1(C)CC(=O)c2c(-c3ccc(Cl)cc3)c(C#N)c(=S)n(C3OC(CO)C(O)C(O)C3O)c2C1` (stereo not given), the GI50 (NCI-H460) was 30.3 µM (inactive), the GI50 (MDA-MB-435) was 27.9 µM (inactive) and the GI50 (M14) was 45.7 µM (inactive). The GI50 (RPMI-8226) was 22.5 µM (inactive), the GI50 (SN12C) was 31.7 µM (inactive) and the GI50 (U-251) was 21.7 µM (inactive). The GI50 (SNB-19) was 40.3 µM (inactive), the GI50 (SR) was 22 µM (inactive) and the GI50 (SK-MEL-28) was 34.8 µM (inactive). For the same compound, the GI50 (OVCAR-8) was 35.7 µM (inactive), the GI50 (HOP-62) was 69.5 µM (inactive) and the GI50 (NCI-H226) was 20.9 µM (inactive). The GI50 (SW-620) was 36.6 µM (inactive), the GI50 (KM12) was 37.3 µM (inactive) and the GI50 (OVCAR-5) was > 100 µM (inactive). For the same compound, the GI50 (A498) was 34 µM (inactive), the GI50 (HT-29) was 26.7 µM (inactive) and the GI50 (MDA-MB-231) was 33.5 µM (inactive). The GI50 (CAKI-1) was 78.7 µM (inactive), the GI50 (COLO 205) was 34 µM (inactive) and the GI50 (NCI/ADR-RES) was 34.4 µM (inactive). The GI50 (786-0) was 27.5 µM (inactive), the GI50 (ACHN) was 39 µM (inactive) and the GI50 (UACC-257) was 28.4 µM (inactive). For the same compound, the GI50 (DU-145) was 49.8 µM (inactive), the GI50 (OVCAR-4) was 49.2 µM (inactive) and the GI50 (SNB-75) was 25.3 µM (inactive). For the same compound, the GI50 (UO-31) was 29.6 µM (inactive), the GI50 (HOP-92) was 21.2 µM (inactive) and the GI50 (BT-549) was 45.9 µM (inactive). For the same compound, the GI50 (LOX IMVI) was 20.1 µM (inactive), the GI50 (SF-539) was 25.4 µM (inactive) and the GI50 (K562) was 13.6 µM (inactive). The GI50 (SF-295) was 38 µM (inactive), the GI50 (MCF7) was 33.7 µM (inactive) and the GI50 (HCT-15) was 21.4 µM. The GI50 (Hs-578T) was 25.4 µM (inactive), the GI50 (T47D) was 18.6 µM (inactive) and the GI50 (CCRF-CEM) was 26.2 µM (inactive). The GI50 (HL-60) was 20.2 µM (inactive), the GI50 (SK-MEL-2) was 19 µM (inactive) and the GI50 (HCT-116) was 16 µM (inactive). The GI50 (PC-3) was 17.2 µM (inactive), the GI50 (IGROV-1) was 56.8 µM (inactive) and the GI50 (NCI-H23) was 50.8 µM (inactive). For the same compound, the GI50 (MDA-N) was 19.1 µM (inactive), the GI50 (RXF 393) was 36.2 µM (inactive) and the GI50 (SF-268) was 48.3 µM (inactive). For the same compound, the GI50 (TK-10) was 53.3 µM (inactive), the GI50 (MOLT-4) was 25 µM (inactive) and the GI50 (SK-MEL-5) was 15.2 µM (inactive). For the same compound, the GI50 (Malme-3M) was 31 µM (inactive), the GI50 (A549) was 36.1 µM (inactive) and the GI50 (OVCAR-3) was 30.9 µM (inactive). The GI50 (UACC-62) was 16.8 µM (inactive), the GI50 (HCC 2998) was 36.7 µM (inactive) and the GI50 (NCI-H522) was 35 µM (inactive).
